Data: PubChem BioAssay (NCI)
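Tested at 5 concentrations; 48 h exposure; 96-well plates; endpoints linearly interpolated, else capped at highest concentration. The concentration for full growth arrest is given as TGI.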

Legend:
Assay in all cases: growth of human tumour cells (NCI), 48 h
A498 renal = tested on: A498 renal
K-562 leukemia = tested on: K-562 leukemia
RXF-631 renal = tested on: RXF-631 renal
SNB-78 CNS = tested on: SNB-78 CNS
786-0 renal = tested on: 786-0 renal
A549 NSCLC = tested on: A549 NSCLC
ACHN renal = tested on: ACHN renal
CCRF-CEM leukemia = tested on: CCRF-CEM leukemia
COLO 205 colon = tested on: COLO 205 colon
DLD-1 colon = tested on: DLD-1 colon
DMS 114 small cell lung = tested on: DMS 114 small cell lung
DMS 273 small cell lung = tested on: DMS 273 small cell lung
EKVX NSCLC = tested on: EKVX NSCLC
HCC-2998 colon = tested on: HCC-2998 colon
HCT-116 colon = tested on: HCT-116 colon
HL-60(TB) leukemia = tested on: HL-60(TB) leukemia
HOP-18 NSCLC = tested on: HOP-18 NSCLC
HOP-62 NSCLC = tested on: HOP-62 NSCLC
HT29 colon = tested on: HT29 colon
IGROV1 ovarian = tested on: IGROV1 ovarian
KM12 colon = tested on: KM12 colon
KM20L2 colon = tested on: KM20L2 colon
LOX IMVI melanoma = tested on: LOX IMVI melanoma
LXFL 529 NSCLC = tested on: LXFL 529 NSCLC
M14 melanoma = tested on: M14 melanoma
M19-MEL melanoma = tested on: M19-MEL melanoma
MALME-3M melanoma = tested on: MALME-3M melanoma
MOLT-4 leukemia = tested on: MOLT-4 leukemia
NCI-H226 lung = tested on: NCI-H226 lung
NCI-H23 lung = tested on: NCI-H23 lung
NCI-H460 lung = tested on: NCI-H460 lung
NCI-H522 lung = tested on: NCI-H522 lung
OVCAR-3 ovarian = tested on: OVCAR-3 ovarian
OVCAR-4 ovarian = tested on: OVCAR-4 ovarian
OVCAR-5 ovarian = tested on: OVCAR-5 ovarian
OVCAR-8 ovarian = tested on: OVCAR-8 ovarian
RXF 393 renal = tested on: RXF 393 renal
SF-268 CNS = tested on: SF-268 CNS
SF-539 CNS = tested on: SF-539 CNS
SK-MEL-2 melanoma = tested on: SK-MEL-2 melanoma
SK-MEL-28 melanoma = tested on: SK-MEL-28 melanoma
SK-MEL-5 melanoma = tested on: SK-MEL-5 melanoma
SK-OV-3 ovarian = tested on: SK-OV-3 ovarian
SN12C renal = tested on: SN12C renal
SNB-19 CNS = tested on: SNB-19 CNS
SNB-75 CNS = tested on: SNB-75 CNS
SR leukemia = tested on: SR leukemia
SW-620 colon = tested on: SW-620 colon
TK-10 renal = tested on: TK-10 renal
U251 CNS = tested on: U251 CNS
UACC-257 melanoma = tested on: UACC-257 melanoma
UACC-62 melanoma = tested on: UACC-62 melanoma
UO-31 renal = tested on: UO-31 renal
CAKI-1 renal = tested on: CAKI-1 renal
HCT-15 colon = tested on: HCT-15 colon
HOP-92 NSCLC = tested on: HOP-92 NSCLC
RPMI-8226 leukemia = tested on: RPMI-8226 leukemia
SF-295 CNS = tested on: SF-295 CNS
XF 498 CNS = tested on: XF 498 CNS

`[Cl-].[Fe+2].c1ccc(-c2ccnc3c2ccc2c(-c4ccccc4)ccnc23)cc1.c1ccc(-c2ccnc3c2ccc2c(-c4ccccc4)ccnc23)cc1.c1ccc(-c2ccnc3c2ccc2c(-c4ccccc4)ccnc23)cc1` gave a TGI (A498 renal) of 0.39 µM, a TGI (K-562 leukemia) of 0.139 µM and a TGI (RXF-631 renal) greater than 100 µM. For the same compound, the TGI (SNB-78 CNS) was greater than 100 µM.
Work on `c1ccc(-c2ccnc3c2ccc2c(-c4ccccc4)ccnc23)cc1` yielded a TGI (786-0 renal) of 10.4 µM, a TGI (A498 renal) of 6.99 µM and a TGI (A549 NSCLC) of 8.71 µM. It also gave a TGI (ACHN renal) of 9.45 µM, a TGI (CCRF-CEM leukemia) of 2.84 µM and a TGI (COLO 205 colon) of 6.71 µM. For the same compound, the TGI (DLD-1 colon) was 15.3 µM, the TGI (DMS 114 small cell lung) was 12.7 µM and the TGI (DMS 273 small cell lung) was 9.5 µM. The TGI (EKVX NSCLC) was 5.53 µM, the TGI (HCC-2998 colon) was 14.3 µM and the TGI (HCT-116 colon) was 10.4 µM. For the same compound, the TGI (HL-60(TB) leukemia) was 3.69 µM, the TGI (HOP-18 NSCLC) was 11.4 µM and the TGI (HOP-62 NSCLC) was 7.86 µM. The TGI (HT29 colon) was 10.8 µM, the TGI (IGROV1 ovarian) was 18.2 µM and the TGI (K-562 leukemia) was 11.4 µM. It also gave a TGI (KM12 colon) of 10.2 µM, a TGI (KM20L2 colon) of 16.5 µM and a TGI (LOX IMVI melanoma) of 14.8 µM. It also gave a TGI (LXFL 529 NSCLC) of 11.5 µM, a TGI (M14 melanoma) of 17.6 µM and a TGI (M19-MEL melanoma) of 5.14 µM. The TGI (MALME-3M melanoma) was 13.5 µM, the TGI (MOLT-4 leukemia) was 2.93 µM and the TGI (NCI-H226 lung) was 4.76 µM. For the same compound, the TGI (NCI-H23 lung) was 14.1 µM, the TGI (NCI-H460 lung) was 7.28 µM and the TGI (NCI-H522 lung) was 5.92 µM. For the same compound, the TGI (OVCAR-3 ovarian) was 10.1 µM, the TGI (OVCAR-4 ovarian) was 12.7 µM and the TGI (OVCAR-5 ovarian) was 11.8 µM. The TGI (OVCAR-8 ovarian) was 4.75 µM, the TGI (RXF 393 renal) was 6.05 µM and the TGI (RXF-631 renal) was 6.19 µM. It also gave a TGI (SF-268 CNS) of 13.3 µM, a TGI (SF-539 CNS) of 5.62 µM and a TGI (SK-MEL-2 melanoma) of 11.4 µM. For the same compound, the TGI (SK-MEL-28 melanoma) was 19.9 µM, the TGI (SK-MEL-5 melanoma) was 11.2 µM and the TGI (SK-OV-3 ovarian) was 11.6 µM. The TGI (SN12C renal) was 6.54 µM, the TGI (SNB-19 CNS) was 13.9 µM and the TGI (SNB-75 CNS) was 9.43 µM. The TGI (SNB-78 CNS) was 18 µM, the TGI (SR leukemia) was 1.29 µM and the TGI (SW-620 colon) was 15 µM. For the same compound, the TGI (TK-10 renal) was 0.994 µM, the TGI (U251 CNS) was 6.79 µM and the TGI (UACC-257 melanoma) was 5.5 µM. It also gave a TGI (UACC-62 melanoma) of 2.25 µM and a TGI (UO-31 renal) of 4.91 µM.
In the case of `CN(C)CN(C)c1nc(N(C)C)nc(N(C)CN(C)C)n1`, the TGI (786-0 renal) was greater than 100 µM, the TGI (A498 renal) was greater than 100 µM and the TGI (A549 NSCLC) was greater than 100 µM. It also gave a TGI (ACHN renal) greater than 100 µM, a TGI (CAKI-1 renal) greater than 100 µM and a TGI (CCRF-CEM leukemia) of 61.1 µM. It also gave a TGI (COLO 205 colon) of 61.6 µM, a TGI (DLD-1 colon) greater than 100 µM and a TGI (DMS 273 small cell lung) of 33.3 µM. The TGI (EKVX NSCLC) was greater than 100 µM, the TGI (HCC-2998 colon) was greater than 100 µM and the TGI (HCT-116 colon) was greater than 100 µM. For the same compound, the TGI (HCT-15 colon) was 68.2 µM, the TGI (HL-60(TB) leukemia) was 36.4 µM and the TGI (HOP-18 NSCLC) was greater than 100 µM. The TGI (HOP-62 NSCLC) was greater than 100 µM, the TGI (HOP-92 NSCLC) was greater than 100 µM and the TGI (HT29 colon) was greater than 100 µM. It also gave a TGI (IGROV1 ovarian) greater than 100 µM, a TGI (K-562 leukemia) of 67.3 µM and a TGI (KM12 colon) greater than 100 µM. It also gave a TGI (KM20L2 colon) greater than 100 µM, a TGI (LOX IMVI melanoma) of 55.1 µM and a TGI (LXFL 529 NSCLC) greater than 100 µM. For the same compound, the TGI (M14 melanoma) was greater than 100 µM, the TGI (M19-MEL melanoma) was greater than 100 µM and the TGI (MOLT-4 leukemia) was 69.5 µM. The TGI (NCI-H226 lung) was greater than 100 µM, the TGI (NCI-H23 lung) was 95.8 µM and the TGI (NCI-H460 lung) was greater than 100 µM. It also gave a TGI (NCI-H522 lung) greater than 100 µM, a TGI (OVCAR-3 ovarian) greater than 100 µM and a TGI (OVCAR-4 ovarian) greater than 100 µM. It also gave a TGI (OVCAR-8 ovarian) greater than 100 µM, a TGI (RPMI-8226 leukemia) of 67.2 µM and a TGI (RXF 393 renal) of 38.9 µM. The TGI (SF-268 CNS) was greater than 100 µM, the TGI (SF-295 CNS) was greater than 100 µM and the TGI (SF-539 CNS) was greater than 100 µM. For the same compound, the TGI (SK-MEL-2 melanoma) was 42.6 µM, the TGI (SK-MEL-28 melanoma) was 83.6 µM and the TGI (SK-MEL-5 melanoma) was greater than 100 µM. It also gave a TGI (SK-OV-3 ovarian) greater than 100 µM, a TGI (SN12C renal) greater than 100 µM and a TGI (SNB-19 CNS) greater than 100 µM. It also gave a TGI (SNB-75 CNS) greater than 100 µM, a TGI (SR leukemia) of 58.3 µM and a TGI (SW-620 colon) of 57.3 µM. It also gave a TGI (TK-10 renal) greater than 100 µM, a TGI (U251 CNS) greater than 100 µM and a TGI (UACC-257 melanoma) greater than 100 µM. The TGI (UACC-62 melanoma) was 40.9 µM, the TGI (UO-31 renal) was greater than 100 µM and the TGI (XF 498 CNS) was greater than 100 µM.
`CC(=O)c1c2c(cc3c1CC1(C3)Cc3cc4c(c(C(=O)O)c3C1)CCC4)CCC2` (stereo unspecified) gave a TGI (786-0 renal) greater than 100 µM, a TGI (A549 NSCLC) greater than 100 µM and a TGI (ACHN renal) greater than 100 µM. The TGI (CAKI-1 renal) was greater than 100 µM, the TGI (CCRF-CEM leukemia) was 69.7 µM and the TGI (COLO 205 colon) was 68.1 µM. For the same compound, the TGI (DLD-1 colon) was greater than 100 µM, the TGI (DMS 114 small cell lung) was greater than 100 µM and the TGI (DMS 273 small cell lung) was greater than 100 µM. It also gave a TGI (HCC-2998 colon) greater than 100 µM, a TGI (HCT-116 colon) of 67.8 µM and a TGI (HL-60(TB) leukemia) of 35.6 µM. The TGI (HOP-18 NSCLC) was greater than 100 µM, the TGI (HOP-62 NSCLC) was greater than 100 µM and the TGI (HOP-92 NSCLC) was 81.2 µM. For the same compound, the TGI (HT29 colon) was greater than 100 µM, the TGI (IGROV1 ovarian) was greater than 100 µM and the TGI (K-562 leukemia) was 97.8 µM. It also gave a TGI (KM12 colon) greater than 100 µM, a TGI (LOX IMVI melanoma) greater than 100 µM and a TGI (LXFL 529 NSCLC) greater than 100 µM. For the same compound, the TGI (M14 melanoma) was greater than 100 µM, the TGI (M19-MEL melanoma) was greater than 100 µM and the TGI (MALME-3M melanoma) was greater than 100 µM. The TGI (MOLT-4 leukemia) was 71.3 µM, the TGI (NCI-H23 lung) was 66.8 µM and the TGI (NCI-H460 lung) was greater than 100 µM. It also gave a TGI (NCI-H522 lung) of 42.3 µM, a TGI (OVCAR-3 ovarian) of 47.2 µM and a TGI (OVCAR-4 ovarian) greater than 100 µM. It also gave a TGI (OVCAR-5 ovarian) greater than 100 µM, a TGI (OVCAR-8 ovarian) greater than 100 µM and a TGI (RXF 393 renal) greater than 100 µM. It also gave a TGI (SF-268 CNS) greater than 100 µM, a TGI (SF-295 CNS) greater than 100 µM and a TGI (SF-539 CNS) of 59.6 µM. For the same compound, the TGI (SK-MEL-28 melanoma) was greater than 100 µM, the TGI (SK-MEL-5 melanoma) was greater than 100 µM and the TGI (SN12C renal) was greater than 100 µM. It also gave a TGI (SNB-19 CNS) greater than 100 µM, a TGI (SNB-75 CNS) greater than 100 µM and a TGI (SNB-78 CNS) greater than 100 µM. The TGI (SR leukemia) was 80.2 µM, the TGI (SW-620 colon) was greater than 100 µM and the TGI (TK-10 renal) was greater than 100 µM. The TGI (U251 CNS) was 70.6 µM, the TGI (UACC-257 melanoma) was greater than 100 µM and the TGI (UACC-62 melanoma) was 78.7 µM. For the same compound, the TGI (UO-31 renal) was 72.7 µM and the TGI (XF 498 CNS) was greater than 100 µM.
